Read-outs that look alike come from different tables or passages of the source.
How the values were obtained:
[1] = target: T1, hGIPR (Homo sapiens, UniProt P48546); assay: hGIPR CreLuc assay in 0.5% and 100% plasma (CHO CRE-luciferase reporter cells); format: cell-based
T1 construct: expressed in transfected cells; host or cells: CHO CRE-luciferase reporter cells
T1 sequence (P48546 22-466): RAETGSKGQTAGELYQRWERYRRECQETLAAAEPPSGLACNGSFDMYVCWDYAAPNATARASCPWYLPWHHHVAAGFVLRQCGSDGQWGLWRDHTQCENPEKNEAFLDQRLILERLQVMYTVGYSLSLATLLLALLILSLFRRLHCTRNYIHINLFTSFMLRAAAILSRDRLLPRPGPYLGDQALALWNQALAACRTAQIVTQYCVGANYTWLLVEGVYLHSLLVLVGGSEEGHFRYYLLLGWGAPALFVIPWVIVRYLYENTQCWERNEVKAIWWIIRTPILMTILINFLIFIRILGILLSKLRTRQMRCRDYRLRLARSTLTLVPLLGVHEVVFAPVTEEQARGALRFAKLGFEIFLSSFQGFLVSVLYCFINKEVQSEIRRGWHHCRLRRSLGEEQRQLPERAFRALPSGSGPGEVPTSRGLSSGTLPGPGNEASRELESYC

[2] = Solubility in 0.1 M phosphate buffer at pH 7; format: physicochemical; conditions: 0.1 M phosphate buffer at pH 7, 10 mg/mL final peptide concentration, shaking 2 hours at room temperature, peptides as TFA-salts; measured sample pH 6.5-7.0
[3] = target: T2, hGLP1R (Homo sapiens, UniProt P43220); assay: hGLP1R CreLuc assay in 0.5% and 100% plasma (HEK-293 CRE-luciferase reporter cells); format: cell-based; conditions: HEK-293 reporter cells
T2 construct: expressed in transfected cells; host or cells: HEK-293 CRE-luciferase reporter cells

[4] = target: T3, hNPY2R (Homo sapiens, UniProt P49146); assay: hNPY2R CreLuc assay in 0.5% and 100% plasma (HEK-293 CRE-luciferase reporter cells); format: cell-based; conditions: HEK-293 reporter cells
T3 construct: expressed in transfected cells; host or cells: HEK-293 CRE-luciferase reporter cells
T3 sequence (P49146 1-381): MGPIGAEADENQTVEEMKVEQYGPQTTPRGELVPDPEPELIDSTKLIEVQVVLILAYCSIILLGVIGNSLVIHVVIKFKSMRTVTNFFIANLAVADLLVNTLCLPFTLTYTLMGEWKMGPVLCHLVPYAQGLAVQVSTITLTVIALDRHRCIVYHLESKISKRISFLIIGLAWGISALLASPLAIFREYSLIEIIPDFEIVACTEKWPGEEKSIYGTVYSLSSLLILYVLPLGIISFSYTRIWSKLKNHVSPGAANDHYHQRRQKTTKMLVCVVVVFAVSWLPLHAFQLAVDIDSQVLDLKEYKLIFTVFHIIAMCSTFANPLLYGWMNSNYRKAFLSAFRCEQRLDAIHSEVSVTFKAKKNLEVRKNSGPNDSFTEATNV

[5] = 0.5% human plasma, read-out: hGIPR 0.5% hP
[6] = 100% human plasma, read-out: hGIPR 100% hP
[7] = 0.5% human plasma, read-out: hGLP1R 0.5% hP
[8] = 100% human plasma, read-out: hNPY2R 100% hP

T2 sequence (P43220 24-463): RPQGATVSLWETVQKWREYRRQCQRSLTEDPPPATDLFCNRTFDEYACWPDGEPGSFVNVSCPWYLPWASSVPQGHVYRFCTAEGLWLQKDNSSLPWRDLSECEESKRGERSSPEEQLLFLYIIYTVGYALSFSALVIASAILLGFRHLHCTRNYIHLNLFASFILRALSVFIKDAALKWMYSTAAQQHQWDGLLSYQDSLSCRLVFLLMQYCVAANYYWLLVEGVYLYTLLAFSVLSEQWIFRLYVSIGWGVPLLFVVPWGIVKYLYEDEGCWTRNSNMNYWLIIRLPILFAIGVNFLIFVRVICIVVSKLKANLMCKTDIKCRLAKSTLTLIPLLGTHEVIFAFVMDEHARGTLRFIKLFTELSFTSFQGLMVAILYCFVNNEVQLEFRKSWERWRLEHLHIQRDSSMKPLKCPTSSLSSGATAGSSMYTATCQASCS

Structure (SMILES) | EC50 [1, 5] [nM] | EC50 [1, 6] [nM] | solubility at 2 h [2] [µg/mL] | EC50 [3, 7] [nM] | EC50 [4, 8] [nM] | EC50 ([4]; 0.5% human plasma, read-out: hNPY2R 0.5% hP) [nM] | EC50 ([3]; 100% human plasma, read-out: hGLP1R 100% hP) [nM]
CC[C@H](C)[C@H](NC(=O)[C@H](CC(C)C)NC(=O)[C@H](Cc1c[nH]cn1)NC(=O)[C@H](CCCNC(=N)N)NC(=O)[C@@H](NC(=O)[C@H](Cc1ccccc1)NC(=O)[C@H](CCC(=O)O)NC(=O)C(C)(C)NC(=O)[C@H](CCC(N)=O)NC(=O)[C@H](C)NC(=O)[C@H](CCC(N)=O)NC(=O)[C@H](CCCCN)NC(=O)[C@H](CCC(=O)O)NC(=O)[C@H](CC(C)C)NC(=O)C(C)(C)NC(=O)[C@@H](NC(=O)[C@H](CO)NC(=O)[C@H](Cc1ccc(O)cc1)NC(=O)[C@H](CC(=O)O)NC(=O)[C@H](CO)NC(=O)[C@@H](NC(=O)[C@H](Cc1ccccc1)NC(=O)[C@@H](NC(=O)CNC(=O)[C@H](CCC(=O)O)NC(=O)C(C)(C)NC(=O)[C@@H](N)Cc1ccc(O)cc1)[C@@H](C)O)[C@@H](C)O)[C@@H](C)CC)C(C)C)C(=O)N[C@@H](CC(N)=O)C(=O)N[C@@H](CCCCNC(=O)COCCOCCNC(=O)CC[C@H](NC(=O)CC[C@H](NC(=O)CC[C@H](NC(=O)CC[C@H](NC(=O)CC[C@H](NC(=O)CCCCCCCCCCCCCCCCC(=O)O)C(=O)O)C(=O)O)C(=O)O)C(=O)O)C(=O)O)C(=O)NC(C)(C)C(=O)N[C@H](C(=O)N[C@@H](CCCNC(=N)N)C(=O)N[C@@H](CCC(N)=O)C(=O)N[C@@H](CCCNC(=N)N)C(=O)N[C@@H](Cc1ccc(O)cc1)C(N)=O)[C@@H](C)O [Compound 8, Y-Aib-E-G-T-F-T-S-D-Y-S-I-Aib-L-E-K-Q-A-Q-Aib-E-F-V-R-H-L-I-N-K(1,3)-Aib-T-R-Q-R-Y-NH2.C18DA-gGlu-gGlu-gGlu-gGlu-gGlu-OEG(1,2)] | 0.3 | 14.2 | 4900 | 0.3 | 476 |  | 
CC[C@H](C)[C@H](NC(=O)[C@H](CC(C)C)NC(=O)[C@H](Cc1c[nH]cn1)NC(=O)[C@H](CCCNC(=N)N)NC(=O)[C@@H](NC(=O)[C@H](Cc1ccccc1)NC(=O)[C@H](C)NC(=O)C(C)(C)NC(=O)[C@H](CCC(N)=O)NC(=O)[C@H](C)NC(=O)[C@H](CCC(N)=O)NC(=O)[C@H](CCCCN)NC(=O)[C@H](CCC(=O)O)NC(=O)[C@H](CC(C)C)NC(=O)C(C)(C)NC(=O)[C@@H](NC(=O)[C@H](CO)NC(=O)[C@H](Cc1ccc(O)cc1)NC(=O)[C@H](CC(=O)O)NC(=O)[C@H](CO)NC(=O)[C@@H](NC(=O)[C@H](Cc1ccccc1)NC(=O)[C@@H](NC(=O)CNC(=O)[C@H](CCC(=O)O)NC(=O)C(C)(C)NC(=O)[C@@H](N)Cc1ccc(O)cc1)[C@@H](C)O)[C@@H](C)O)[C@@H](C)CC)C(C)C)C(=O)N[C@@H](CC(N)=O)C(=O)N[C@@H](CCCCNC(=O)CCCCCNC(=O)CC[C@H](NC(=O)CC[C@H](NC(=O)CC[C@H](NC(=O)CC[C@H](NC(=O)CC[C@H](NC(=O)CCCCCCCCCCCCCCCCCCC(=O)O)C(=O)O)C(=O)O)C(=O)O)C(=O)O)C(=O)O)C(=O)NC(C)(C)C(=O)N[C@H](C(=O)N[C@@H](CCCNC(=N)N)C(=O)N[C@@H](CCC(N)=O)C(=O)N[C@@H](CCCNC(=N)N)C(=O)N[C@@H](Cc1ccc(O)cc1)C(N)=O)[C@@H](C)O [Compound 167, Y-Aib-E-G-T-F-T-S-D-Y-S-I-Aib-L-E-K-Q-A-Q-Aib-A-F-V-R-H-L-I-N-K(1,3)-Aib-T-R-Q-R-Y-NH2.C20DA-gGlu-gGlu-gGlu-gGlu-gGlu-AHX(1,2)] | 0.2 |  | 10000 | 1 |  | 13.3 | 
CC[C@H](C)[C@H](NC(=O)[C@H](CC(C)C)NC(=O)[C@H](Cc1c[nH]cn1)NC(=O)[C@H](CCCNC(=N)N)NC(=O)[C@@H](NC(=O)[C@H](Cc1ccccc1)NC(=O)[C@H](C)NC(=O)[C@H](Cc1ccc(O)cc1)NC(=O)[C@H](CCC(N)=O)NC(=O)[C@H](C)NC(=O)[C@H](CCC(N)=O)NC(=O)[C@H](CCCCN)NC(=O)[C@H](CCC(=O)O)NC(=O)[C@H](CC(C)C)NC(=O)C(C)(C)NC(=O)[C@@H](NC(=O)[C@H](CO)NC(=O)[C@H](Cc1ccc(O)cc1)NC(=O)[C@H](CC(=O)O)NC(=O)[C@H](CO)NC(=O)[C@@H](NC(=O)[C@H](Cc1ccccc1)NC(=O)[C@@H](NC(=O)CNC(=O)[C@H](CCC(=O)O)NC(=O)C(C)(C)NC(=O)[C@@H](N)Cc1ccc(O)cc1)[C@@H](C)O)[C@@H](C)O)[C@@H](C)CC)C(C)C)C(=O)N[C@@H](CC(N)=O)C(=O)N[C@@H](CCCCNC(=O)[C@@H](N)CCCCNC(=O)CC[C@H](NC(=O)CC[C@H](NC(=O)CC[C@H](NC(=O)CC[C@H](NC(=O)CC[C@H](NC(=O)CC[C@H](NC(=O)CCCCCCCCCCCCCCCCC(=O)O)C(=O)O)C(=O)O)C(=O)O)C(=O)O)C(=O)O)C(=O)O)C(=O)NC(C)(C)C(=O)N[C@H](C(=O)N[C@@H](CCCNC(=N)N)C(=O)N[C@@H](CCC(N)=O)C(=O)N[C@@H](CCCNC(=N)N)C(=O)N[C@@H](Cc1ccc(O)cc1)C(N)=O)[C@@H](C)O [Compound 151, Y-Aib-E-G-T-F-T-S-D-Y-S-I-Aib-L-E-K-Q-A-Q-Y-A-F-V-R-H-L-I-N-K(1,3)-Aib-T-R-Q-R-Y-NH2.C18DA-gGlu-gGlu-gGlu-gGlu-gGlu-gGlu-eLys(1,2)] | 0.5 | 5.6 | 10300 |  | 89.8 |  | 7
CC[C@H](C)[C@H](NC(=O)[C@H](CC(C)C)NC(=O)[C@H](Cc1c[nH]cn1)NC(=O)[C@H](CCCNC(=N)N)NC(=O)[C@@H](NC(=O)[C@H](Cc1ccccc1)NC(=O)[C@H](CCC(=O)O)NC(=O)C(C)(C)NC(=O)[C@H](CCC(N)=O)NC(=O)[C@H](C)NC(=O)[C@H](CCC(N)=O)NC(=O)[C@H](CCCCN)NC(=O)[C@H](CCC(=O)O)NC(=O)[C@H](CC(C)C)NC(=O)C(C)(C)NC(=O)[C@@H](NC(=O)[C@H](CO)NC(=O)[C@H](Cc1ccc(O)cc1)NC(=O)[C@H](CC(=O)O)NC(=O)[C@H](CO)NC(=O)[C@@H](NC(=O)[C@H](Cc1ccccc1)NC(=O)[C@@H](NC(=O)CNC(=O)[C@H](CCC(=O)O)NC(=O)C(C)(C)NC(=O)[C@@H](N)Cc1ccc(O)cc1)[C@@H](C)O)[C@@H](C)O)[C@@H](C)CC)C(C)C)C(=O)N[C@@H](CC(N)=O)C(=O)N[C@@H](CCCCNC(=O)COCCOCCNC(=O)COCCOCCNC(=O)CC[C@H](NC(=O)CC[C@H](NC(=O)CC[C@H](NC(=O)CC[C@H](NC(=O)CCCCCCCCCCCCCCCCC(=O)O)C(=O)O)C(=O)O)C(=O)O)C(=O)O)C(=O)NC(C)(C)C(=O)N[C@H](C(=O)N[C@@H](CCCNC(=N)N)C(=O)N[C@@H](CCC(N)=O)C(=O)N[C@@H](CCCNC(=N)N)C(=O)N[C@@H](Cc1ccc(O)cc1)C(N)=O)[C@@H](C)O [Compound 73, Y-Aib-E-G-T-F-T-S-D-Y-S-I-Aib-L-E-K-Q-A-Q-Aib-E-F-V-R-H-L-I-N-K(1,3)-Aib-T-R-Q-R-Y-NH2.C18DA-gGlu-gGlu-gGlu-gGlu-OEG-OEG(1,2)] | 0.4 | 5.9 | 4900 | 0.4 | 136 |  | 
